According to patent US20030226169A1, “DNA sequences encoding antifungal proteins” (priority 1995, published 2003):
Values after ≈ are worked out from the molar mass of the structure shown. Where two headings read alike, the source gives them in different places. Non-standard residues stand in square brackets, D forms with d. Residues, ends and D or L forms follow the SMILES beside them. Abu = CC[C@H](N)C(=O)O

Assays:
[1] = test system: Ascophyta pisi (MUCL 30164); assay type: cell-based; conditions: for A PISI IC: the source numbers peptides by N-terminal amino acid
Procedure: (§1) The following fungal strains were used: Alternaria brassicicola (MUCL 20297), Ascophyta pisi (MUCL 30164), Botrytis cinerea (MUCL 30158), Fusarium culmorum (IMI 180420) and Verticillium dahliae (MUCL 19210).
(§2) Fungi were grown on six cereal agar plates at room temperature and under white fluorescent light except for F culmorum and V dahliae which were grown in the dark. The duration of the spore harvest varied between 10 and 25 days depending on the strain. Spores were collected as follows. Five to ten ml of sterile milli-Q water was poured into each dish and the surface of the agar was rubbed with a sterile spatula to obtain a suspension containing mycelium and spores. This suspension was filtered through a sterile glasswool-plugged funnel and the filtrate containing the spores was collected in a sterile polypropylene centrifuge tube. The A brassicicola spores were suspended in sterile 0.1 Tween 20 (Merk, 822184) due to their hydrophobic nature. The spore suspensions were then washed twice by centrifugation at 2,400×g for 15 minutes and resuspended in a small volume of steril milli-Q water. The spore density was determined in a counting chamber and then adjusted to 4×10^7 spores per ml. Aliquots of the spore suspension were transferred to sterile microtubes and an equal volume of sterile 50% glycerol (Merck, 4091) was added to each tube so that a final spore suspension of 2×10^7 spores per ml in 25% glycerol was obtained. After careful mixing of the stock, the spore suspension was transferred in 100 μl aliquots to sterile microtubes and stored at −80° C.
(§3) Antifungal activity was measured by photospectrometry as described by Broekaert et al, (1990, FEMS Microbiol Lett, 69:55-60). Tests were performed by adding 20 μl of test solution and 80 μl of a fungal spore suspension (2×10^4 spores/ml) per well in a sterile flat-bottom 96-well microtiterplate. The spore suspension was prepared by diluting the stock spore suspension ([…] in 25% glycerol) 1:1000 in half-strength potato dextrose broth. A positive growth control consisting of eight wells containing 20 μl of sterile milli-Q water and 80 μl of the fungal spore suspension was included in each test. The microtiterplates were incubated (with the lid on) in an aerated place at room temperature and under conditions of darkness for all test organisms.
(§4) After 30 minutes of incubation (when the spores are settled on the well bottom) the optical density was measured in a microplate reader (Bio Rad 3550-UV) at 595 nm. Incubation of the microtiterplates continued until the optical density of the control microculture was between 0.250 and 0.500, which took approximately 72 hours (96 hours for V dahliae). Percentage of growth inhibition (% GI) was estimated as 100 times the ratio of the corrected absorbance of the control microculture minus the corrected absorbance of the test microculture over the corrected absorbance of the control microculture at 595 nm. The corrected absorbance values equal the absorbance at 595 nm of the culture measured after 72 or 96 hours minus the absorbance at 595 nm measured after 30 minutes.
(§5) % GI=[(Acontrol−Atest/Acontrol]×100
(§6) where Acontrol=(A72/96h−A30min)control
(§7) The IC50 value is defined as the concentration that gives a 50% growth inhibition after 72 or 96 hours of incubation. The minimum inhibitory concentration (MIC) corresponds to the minimum concentration that gives 100% growth inhibition after 72 or 96 hours incubation.

[2] = test system: Fusarium culmorum (IMI 180420); assay: Antifungal growth inhibition microplate assay (photospectrometry); assay type: cell-based; conditions: for IC50 / MIC / F CULMORUM IC50 / F CULMORUM MIC / F CULMORUM IC: ½ PDB; for F CULMORUM IC: Table 6 / FIG. 8: Rs-AFP1-based 9-mer split peptides; for antifungal activity (in words): overlapping 13- to 20-mer MPS peptides Ile26-Phe49, Cys replaced by alpha-aminobutyric acid, FIGS. 10-13
Procedure: as §1, §2, §3, §4, §5, §6, §7

[3] = Table 7: Rs-AFP1-based 12-mer split peptides, ½ PDB
[4] = Table 4 / FIG. 6: Rs-AFP2-based 12-mer split peptides, the source numbers peptides by N-terminal amino acid
[5] = Table 4: Rs-AFP2-based 12-mer split peptides, triplicate
[6] = Table 14: 18-, 19-, 20-mer peptides with C-terminal Phe49, duplo
[7] = Table 3 / FIG. 6: Rs-AFP2-based 9-mer split peptides, the source numbers peptides by N-terminal amino acid
[8] = Table 3: Rs-AFP2-based 9-mer split peptides, duplicate
[9] = Table 6: Rs-AFP1-based 9-mer split peptides, ½ PDB
[10] = the source numbers peptides by N-terminal amino acid
[11] = Table 6: Rs-AFP1-based 9-mer split peptides

| Compound | IC50 [2, 4] [µg/mL] | MIC [2, 5] [µg/mL] | IC50 [2, 7] [µg/mL] | MIC [2, 8] [µg/mL] | also measured |
| --- | --- | --- | --- | --- | --- |
| 114 (CIRLEKARHGSC; listed as Raphanus sativus) [compound 114] | 74 | 100 |  |  | A PISI IC50 [1, 3]: 318 µg/mL; A PISI MIC [1, 3]: >400 µg/mL; F CULMORUM IC50 ([2]; Table 7 / FIG. 8: Rs-AFP1-based 12-mer split peptides, the source numbers peptides by N-terminal amino acid): 328 µg/mL; F CULMORUM MIC ([2]; Table 7: Rs-AFP1-based 12-mer split peptides): 400 µg/mL |
| CC[C@H](NC(=O)[C@H](CO)NC(=O)CNC(=O)[C@H](Cc1c[nH]cn1)NC(=O)[C@H](CCCNC(=N)N)NC(=O)[C@H](C)NC(=O)[C@H](CCCCN)NC(C)=O)C(=O)N[C@@H](CC(N)=O)C(=O)N[C@@H](Cc1ccc(O)cc1)C(=O)N[C@H](C(=O)N[C@@H](Cc1ccccc1)C(=O)N1CCC[C@H]1C(=O)N[C@@H](C)C(=O)N[C@@H](Cc1c[nH]cn1)C(=O)N[C@@H](CCCCN)C(=O)N[C@@H](CC)C(=O)N[C@H](C(=O)N[C@@H](CC)C(=O)N[C@@H](Cc1ccc(O)cc1)C(=O)N[C@@H](Cc1ccccc1)C(N)=O)[C@@H](C)CC)C(C)C [Peptide Q06, KARHGSBNYVFPAHKBIBYF] (Ac-KARHGS[Abu]NYVFPAHK[Abu]I[Abu]YF-NH2) |  |  |  |  | IC50 SMF + pH5 [2, 6]: 31 ± 17 μg/ml; IC50 SMF + pH7 [2, 6]: 62 ± 8 μg/ml; IC50 ½ PDB ([2]; Table 14: 18-, 19-, 20-mer peptides with C-terminal Phe49, peptides single experiment): 4.8 µg/mL (≈ 2.06 µM) |
| CC[C@H](C)[C@H](NC(=O)[C@H](CS)NC(=O)[C@H](CCCCN)NC(C)=O)C(=O)N[C@@H](CS)C(=O)N[C@@H](Cc1ccc(O)cc1)C(=O)N[C@@H](Cc1ccccc1)C(N)=O [compound 44] (Ac-KCICYF-NH2) |  |  |  |  | A PISI IC50 [1]: 400 µg/mL; A PISI MIC [1]: >400 µg/mL; F CULMORUM IC50 ([2]; Table 5 / FIG. 8: Rs-AFP1-based 6-mer split peptides): 376 µg/mL; F CULMORUM MIC ([2]; Table 5: Rs-AFP1-based 6-mer split peptides): >400 tg/ml |
| CC[C@H](C)[C@H](NC(=O)[C@H](CS)NC(=O)[C@H](CCC(N)=O)NC(=O)[C@H](CC(N)=O)NC(=O)[C@H](CCCCN)NC(=O)[C@H](CS)NC(=O)[C@H](C)NC(=O)[C@H](CC(N)=O)NC(C)=O)C(=O)N[C@@H](CCCNC(=N)N)C(N)=O [compound 65] (Ac-NACKNQCIR-NH2) |  |  | 144 (≈ 132 µM) | 200 (≈ 183 µM) |  |
| CC[C@H](C)[C@H](NC(=O)[C@H](CS)NC(=O)[C@H](CCC(N)=O)NC(=O)[C@H](CC(N)=O)NC(=O)[C@H](CCCCN)NC(=O)[C@H](CS)NC(=O)[C@H](C)NC(C)=O)C(=O)N[C@@H](CCCNC(=N)N)C(=O)N[C@@H](CC(C)C)C(N)=O [compound 66] (Ac-ACKNQCIRL-NH2) |  |  | 105 (≈ 96.4 µM) | 150 (≈ 138 µM) |  |
| CC[C@H](C)[C@H](NC(=O)[C@H](CS)NC(=O)[C@H](CCCCN)NC(=O)[C@H](Cc1c[nH]cn1)NC(=O)[C@H](C)NC(=O)[C@@H]1CCCN1C(=O)[C@H](Cc1ccccc1)NC(=O)[C@@H](NC(C)=O)C(C)C)C(=O)N[C@@H](CS)C(N)=O [compound 85] (Ac-VFPAHKCIC-NH2) |  |  | 121 (≈ 114 µM) | 200 (≈ 189 µM) | A PISI MIC [1, 9]: 400 µg/mL; A PISI IC [1, 9]: 184 µg/mL; F CULMORUM IC [2, 10]: 121 µg/mL; F CULMORUM MIC [2, 11]: 200 µg/mL |
| CC[C@H](C)[C@H](NC(=O)[C@H](CS)NC(=O)[C@H](CCCCN)NC(=O)[C@H](Cc1c[nH]cn1)NC(=O)[C@H](C)NC(=O)[C@@H]1CCCN1C(=O)[C@H](Cc1ccccc1)NC(C)=O)C(=O)N[C@@H](CS)C(=O)N[C@@H](Cc1ccc(O)cc1)C(N)=O [compound 86] (Ac-FPAHKCICY-NH2) |  |  | 144 (≈ 128 µM) | 400 (≈ 356 µM) | A PISI MIC [1, 9]: 200 µg/mL; A PISI IC [1, 9]: 80 µg/mL; F CULMORUM IC [2, 10]: 196 µg/mL; F CULMORUM MIC [2, 11]: 250 µg/mL |
| CC[C@H](C)[C@H](NC(=O)[C@H](CS)NC(=O)[C@H](CCCCN)NC(=O)[C@H](Cc1c[nH]cn1)NC(=O)[C@H](C)NC(=O)[C@@H]1CCCN1C(C)=O)C(=O)N[C@@H](CS)C(=O)N[C@@H](Cc1ccc(O)cc1)C(=O)N[C@@H](Cc1ccccc1)C(N)=O [compound 87] (Ac-PAHKCICYF-NH2) |  |  | 39 (≈ 34.7 µM) | 50 (≈ 44.5 µM) | A PISI MIC [1, 9]: 50 µg/mL; A PISI IC [1, 9]: 31 µg/mL; F CULMORUM IC [2, 10]: 28 µg/mL; F CULMORUM MIC [2, 11]: 37.5 µg/mL |
| CC[C@H](C)[C@H](NC(=O)[C@H](CS)NC(=O)[C@H](CCC(N)=O)NC(=O)[C@H](CC(N)=O)NC(=O)[C@H](CCCCN)NC(=O)[C@H](CS)NC(=O)[C@H](C)NC(=O)[C@H](CC(N)=O)NC(=O)[C@H](CC(N)=O)NC(=O)[C@H](CC(N)=O)NC(C)=O)C(=O)N[C@@H](CCCNC(=N)N)C(=O)N[C@@H](CC(C)C)C(N)=O [compound 106] (Ac-NNNACKNQCIRL-NH2) | 116 (≈ 81 µM) | 150 (≈ 105 µM) |  |  |  |
| CC[C@H](C)[C@H](NC(=O)[C@H](CS)NC(=O)[C@H](CCC(N)=O)NC(=O)[C@H](CC(N)=O)NC(=O)[C@H](CCCCN)NC(=O)[C@H](CS)NC(=O)[C@H](C)NC(=O)[C@H](CC(N)=O)NC(C)=O)C(=O)N[C@@H](CCCNC(=N)N)C(=O)N[C@@H](CC(C)C)C(=O)N[C@@H](CCC(=O)O)C(=O)N[C@@H](CCCCN)C(N)=O [compound 108] (Ac-NACKNQCIRLEK-NH2) | 150 (≈ 103 µM) | 200 (≈ 137 µM) |  |  |  |
| CC[C@H](C)[C@H](NC(=O)[C@H](CS)NC(=O)[C@H](CCC(N)=O)NC(=O)[C@H](CC(N)=O)NC(=O)[C@H](CCCCN)NC(=O)[C@H](CS)NC(=O)[C@H](C)NC(C)=O)C(=O)N[C@@H](CCCNC(=N)N)C(=O)N[C@@H](CC(C)C)C(=O)N[C@@H](CCC(=O)O)C(=O)N[C@@H](CCCCN)C(=O)N[C@@H](C)C(N)=O [compound 109] (Ac-ACKNQCIRLEKA-NH2) | 106 (≈ 74.8 µM) | 150 (≈ 106 µM) |  |  |  |
| Ac-CIRLEKARH-NH2 [compound 71] |  |  | 66 | 100 |  |
| Ac-FPAHKC-NH2 [compound 40] |  |  |  |  | MIC ([2]; Table 2: Rs-AFP2-based 6-mer split peptides, duplicate): 100 µg/mL |
| Ac-IRLEKARHGSCN-NH2 [compound 115] | 203 | 300 |  |  |  |
| Ac-KNQCIRLEKARH-NH2 [compound 111] | 126 | 200 |  |  |  |
| Ac-LEKARHGSC-NH2 [compound 74] |  |  | 270 | 400 | F CULMORUM IC [2, 10]: 370 µg/mL; F CULMORUM MIC [2, 11]: >400 µg/mL |
| Ac-NQCIRLEKARHG-NH2 [compound 112] | 149 | 200 |  |  |  |
| Ac-NYVFPAHKC-NH2 [compound 83] |  |  | 175 | 250 | F CULMORUM IC [2, 10]: 330 µg/mL; F CULMORUM MIC [2, 11]: 400 µg/mL |
| Ac-QCIRLEKAR-NH2 [compound 70] |  |  | 78 | 100 |  |
| Ac-YVFPAHKCI-NH2 [compound 84] |  |  | 175 | 400 | F CULMORUM IC [2, 10]: 145 µg/mL; F CULMORUM MIC [2, 11]: 250 µg/mL |
| HGSBNYVFPAHKBIBY (Ac-HGS[Abu]NYVFPAHK[Abu]I[Abu]Y-NH2; listed as Raphanus sativus) [SEQ ID NO: 99] |  |  |  |  | antifungal activity (in words) [2]: nonactive |
| RHGSBNYVFPAHKBIBY (Ac-RHGS[Abu]NYVFPAHK[Abu]I[Abu]Y-NH2; listed as Raphanus sativus) [SEQ ID NO: 107] |  |  |  |  | antifungal activity (in words) [2]: very active |
